# Test results published in EP0445062A1, “4(1H)Quinolone derivatives” (LABORATORIOS ALMIRALL SA, priority 1990, dated 1991).
# What was measured:
# [1] = Chemical Abstracts Vol. 71, 113122 a (1969); cited from earlier work
# [2] = J. Het. Chem. 23, 1801 (1986); cited from earlier work
# [3] = tested on: anaesthetized rats; assay: Vasodilator activity in anaesthetized rats (fall in mean blood pressure); assay type: in vivo, Wistar rats; details: Rattus norvegicus, iv; dose producing 30% fall in mean blood pressure; i.v. bolus injection; read-out: MAN BP IN THE ANAESTH. RAT ED30
# Protocol: Vasodilator activity in anaesthetized rats
# Male Wistar rats of weight range 300-400 g were anaesthetized with pentobarbital (60 mg/kg i.p.). The trachea was canulated to permit artificial respiration. A carotid artery and a jugular vein were cannulated to permit recording of mean arterial blood pressure and i.v. administration of drugs respectively.
# Following a period of stabilisation (20 min), flosequinan or test drugs were administered by bolus injection and falls in mean blood pressure recorded. Responses were measured as the percentage fall in blood pressure over control, calculating the dose that produced an effect of 30% (ED₃₀).
# [4] = tested on: male Swiss mice; assay: Acute toxicity in mice; assay type: in vivo; details: intraperitoneal, deaths after 48 hours, doses up to 300 mg/kg
# Protocol: Acute toxicity of each compound was determined in groups of 5 male Swiss mice per dose. Administration of flosequinan and test compounds was made by the intraperitoneal route up the dose of 300 mg/kg. After 48 hours the number of deaths was noted and the dose producing 100% of deaths (LD₁₀₀) was calculated.
# [5] = tested on: Guinea-pig isolated tracheal rings; assay: Guinea-pig isolated tracheal rings (spontaneous tone), relaxation; set-up: species or system guinea-pigs; details: Cavia porcellus, concentration producing 50% relaxation, isoprenaline 10^-6 M response = 100%, read-out: TRACHEAL RING EC50
# Protocol: Guinea-pig isolated tracheal rings (spontaneaus tone)
# Male guinea-pigs (400-500 g) were killed, and their tracheae were removed and cut into pairs of rings. The rings were then mounted in organ baths containing Krebs-Henseleit solution at 37°C and oxygenated with […] under 1 g resting tension (Allen et al., Br.J.Pharmacol.(1986),89,395). After a 1 hour stabilization period, responses to isoprenaline 10⁻⁶ M were obtained. Tissues were then washed and after a period for restabilization (20 min) the effects of test drugs and flosequinan were investigated by adding cumulative concentrations of these to the baths.
# Responses were measured as the percentage of the relaxation response to isoprenaline 10⁻⁶ M. The concentration producing a 50% relaxation taking isoprenaline responses as 100% (EC₅₀) was calculated.
# [6] = tested on: Guinea-pig isolated right ventricular strips; assay: Guinea-pig isolated right ventricular strips, increase in developed tension; set-up: species or system guinea-pigs; details: Cavia porcellus, stimulated at 1 Hz; for activation at 10 µM: percentage increase in developed tension at 10^-5 M, read-out: VENTRICULAR STRIP % at 10-5 M; for activation at 1 µM: percentage increase in developed tension at 10^-6M, read-out: VENTRICULAR STRIP % (10-6M)
# Protocol: Guinea-pig isolated right ventricular strips
# Male guinea-pigs of weight 400-500 g were killed, their hearts were removed and 2 ventricular preparations (ca 1 cm x 1 mm) cut from the right bide. There were then mounted in organ baths containing modified Krebs-Henseleit solution at 37°C and continually aereated with […]. The preparations were placed under 1 g resting tension and electrically stimulated to contract at 1 Hz whilst force of contraction was measured using an isometric force transducer (Gristwood and Owen, Br.J.Pharmacol. (1985),87,91P). Preparations were equilibrated for 60 min during which they were washed every 15 min with fresh buffer. Flosequinan and test compounds were added to the organ baths from 10^-6 to 10^-4 M concentrations and responses measured as percentage increases in developed tension.
# [7] = tested on: Conscious renal hypertensive beagle dogs; assay: Conscious renal hypertensive beagle dogs, fall in mean blood pressure after oral dosing; assay type: in vivo; details: oral by gavage; for CONSC.HYPERT. DOG AUC (0-4h) (1 mg/kg): 1 mg/kg po; for CONSC.HYPERT. DOG AUC (0-4h) at mg/kg po: dose not given
# Protocol: Conscious renal hypertensive beagle dogs
# Male beagle dogs were made hypertensive by the method of Page (J.Amer.Med.Assoc.(1939),113,2046). Two months later, these animals were prepared with exteriorized carotid loops (Gristwood et al., Br.J.Pharmacol. (1988),93,893) three weeks before using for experimentation. Animals were fasted 17 hours before administration of flosequinan or test compounds orally. Animals were then placed in restraints and allowed to settle for 1 hour. Mean blood pressure (MBP) was measured by puncturing the carotid loop with a 18G needle attached to a pressure transducer. Drugs (suspended in 1% methylcellulose + 0.05% Tween 80) were given orally by gavage at different doses, and mean blood pressure was measured over 4 hours using a polygraph. Drug responses were measured by calculating the area under the curve of percentage fall in mean blood pressure and time (units= % fall in MBP x hours) (Allen et al., J.Clin.Pharmacol.(1982),1S-23S).
SMILES,pharmacological activities [1],antibacterial activity [2],ED30 [3],LD100 IN MICE [4],EC50 [5],activation at 10 µM [6],CONSC.HYPERT. DOG AUC (0-4h) (1 mg/kg) [7],activation at 1 µM [6],CONSC.HYPERT. DOG AUC (0-4h) at mg/kg po [7],"activation at 100 µM ([6]; percentage increase in developed tension at 10^-4M, read-out: VENTRICULAR STRIP % (10-4M))"
Cn1cc(N)c(=O)c2ccccc21 [1-methyl-3-amino-4(1H)quinolone],no appreciable pharmacological activities,,,,,,,,,
CCn1cc(NS(C)(=O)=O)c(=O)c2cc(F)c(Cl)cc21 [A],,does not exhibit any interesting antibacterial activity,,,,,,,,
"Cn1cc(NS(C)(=O)=O)c(=O)c2ccccc21 [Compound 1, 1-methyl-3-methylsulfonamido-4(1H) quinolone]",,,0.02 mg/kg,>300 mg/kg ip,240 nM,82%,54 (1 mg/kg) % fall in MBP x hours,,,
"Cn1cc(NS(C)(=O)=O)c(=O)c2cc(F)ccc21 [Compound 3, 1-methyl-3-methylsulfonylamino-6-fluoro-4(1H)quinolone]",,,0.06 mg/kg,>300 mg/kg ip,600 nM,53%,51 (1 mg/kg) % fall in MBP x hours,,,
"Cn1cc(NS(C)(=O)=O)c(=O)c2ccc(Cl)cc21 [Compound 4, 1-methyl-3-methylsulfonylamino-7-chloro-4(1H)quinolone]",,,0.01 mg/kg,>300 mg/kg ip,500 nM,,,55%,68 % fall in MBP x hours,
Cn1cc(NS(C)(=O)=O)c(=O)c2ccc(C(F)(F)F)cc21 [Compound 5],,,0.03 mg/kg,>300 mg/kg ip,420 nM,,,35%,,
"Cn1cc(NS(C)(=O)=O)c(=O)c2ccc(F)cc21 [Compound 6, 1-methyl-3-methylsulfonylamino-7-fluoro-4(1H)quinolone]",,,0.01 mg/kg,>300 mg/kg ip,360 nM,86%,,,65 % fall in MBP x hours,
COc1ccc2c(c1)c(=O)c(NS(C)(=O)=O)cn2C [Compound 11],,,0.05 mg/kg,>300 mg/kg ip,1600 nM,52%,,,,
"Cn1cc([S+](C)[O-])c(=O)c2ccc(F)cc21 (centres unmarked) [FLOSEQUINAN, 7-fluoro-1-methyl-3-methylsulfinyl-4(1H)quinolone, reference compound]",,,0.2 mg/kg,300 mg/kg ip,3000 nM,,,,41 % fall in MBP x hours,75%
